Results from the kinase profiling compilation of Christmann-Franck et al. (2016).

Columns and labels:
Assay in all cases: radiometric filter-binding kinase assay, Kinase HotSpot
Conditions in all cases: compound 0.5 µM; ATP 10 µM
ADRBK2 (human) = ADRBK2 (human) (UniProt P35626)
PRKCH (human) = PRKCH (human) (UniProt P24723)
CAMK2G (human) = CAMK2G (human) (UniProt Q13555)
MAPK14 (human) = MAPK14 (human) (UniProt Q16539)
PAK3 (human) = PAK3 (human) (UniProt O75914)
EPHA1 (human) = EPHA1 (human) (UniProt P21709)
TAOK3 (human) = TAOK3 (human) (UniProt Q9H2K8)
STK16 (human) = STK16 (human) (UniProt O75716)
STK16 (human), sequence (O75716 whole entry, looked up): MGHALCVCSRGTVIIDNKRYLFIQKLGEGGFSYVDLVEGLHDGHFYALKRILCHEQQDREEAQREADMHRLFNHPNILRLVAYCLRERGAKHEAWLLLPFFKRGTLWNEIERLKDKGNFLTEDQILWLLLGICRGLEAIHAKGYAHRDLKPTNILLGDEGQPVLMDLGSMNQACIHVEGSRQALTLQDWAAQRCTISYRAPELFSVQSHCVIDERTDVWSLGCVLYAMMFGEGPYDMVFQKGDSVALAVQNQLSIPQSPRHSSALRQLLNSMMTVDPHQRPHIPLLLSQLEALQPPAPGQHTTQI

MARK2 (human) = MARK2 (human) (UniProt Q7KZI7)
GRK6 (human) = GRK6 (human) (UniProt P43250)
PRKX (human) = PRKX (human) (UniProt P51817)
SRPK3 (human) = SRPK3 (human) (UniProt Q9UPE1)
NUAK2 (human) = NUAK2 (human) (UniProt Q9H093)
SGK2 (human) = SGK2 (human) (UniProt Q9HBY8)
PRKACA (human) = PRKACA (human) (UniProt P17612)
DDR2 (human) = DDR2 (human) (UniProt Q16832)
DDR2 (human), sequence (Q16832 whole entry, looked up): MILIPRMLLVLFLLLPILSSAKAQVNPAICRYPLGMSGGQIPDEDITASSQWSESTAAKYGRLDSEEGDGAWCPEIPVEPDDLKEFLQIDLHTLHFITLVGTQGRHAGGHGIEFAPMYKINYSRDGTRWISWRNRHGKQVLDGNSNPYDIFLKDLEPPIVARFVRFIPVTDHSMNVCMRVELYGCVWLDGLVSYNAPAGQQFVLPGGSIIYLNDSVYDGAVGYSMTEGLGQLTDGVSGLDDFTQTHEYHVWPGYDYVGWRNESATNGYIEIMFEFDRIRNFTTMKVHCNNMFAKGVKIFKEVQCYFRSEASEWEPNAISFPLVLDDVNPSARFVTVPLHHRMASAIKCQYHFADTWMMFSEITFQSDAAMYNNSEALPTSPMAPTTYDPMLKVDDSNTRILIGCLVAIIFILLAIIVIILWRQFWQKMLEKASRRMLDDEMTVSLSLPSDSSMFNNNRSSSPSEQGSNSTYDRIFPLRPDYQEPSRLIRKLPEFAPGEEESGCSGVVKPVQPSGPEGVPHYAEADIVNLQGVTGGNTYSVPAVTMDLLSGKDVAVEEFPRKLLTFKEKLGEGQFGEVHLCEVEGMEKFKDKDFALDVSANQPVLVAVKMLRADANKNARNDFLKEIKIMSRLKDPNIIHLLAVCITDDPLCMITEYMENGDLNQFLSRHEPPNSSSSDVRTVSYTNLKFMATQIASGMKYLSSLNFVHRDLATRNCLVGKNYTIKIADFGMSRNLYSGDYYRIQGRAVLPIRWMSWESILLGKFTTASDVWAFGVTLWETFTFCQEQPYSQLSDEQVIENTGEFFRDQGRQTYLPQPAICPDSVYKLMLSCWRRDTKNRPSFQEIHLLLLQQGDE

CDK7 CCNH MNAT1 (human) = CDK7 CCNH MNAT1 (human) (UniProt P50613+P51948+P51946)
DYRK1A (human) = DYRK1A (human) (UniProt Q13627)
MAP3K8 (human) = MAP3K8 (human) (UniProt P41279)
MAP3K8 (human), sequence (P41279 whole entry, looked up): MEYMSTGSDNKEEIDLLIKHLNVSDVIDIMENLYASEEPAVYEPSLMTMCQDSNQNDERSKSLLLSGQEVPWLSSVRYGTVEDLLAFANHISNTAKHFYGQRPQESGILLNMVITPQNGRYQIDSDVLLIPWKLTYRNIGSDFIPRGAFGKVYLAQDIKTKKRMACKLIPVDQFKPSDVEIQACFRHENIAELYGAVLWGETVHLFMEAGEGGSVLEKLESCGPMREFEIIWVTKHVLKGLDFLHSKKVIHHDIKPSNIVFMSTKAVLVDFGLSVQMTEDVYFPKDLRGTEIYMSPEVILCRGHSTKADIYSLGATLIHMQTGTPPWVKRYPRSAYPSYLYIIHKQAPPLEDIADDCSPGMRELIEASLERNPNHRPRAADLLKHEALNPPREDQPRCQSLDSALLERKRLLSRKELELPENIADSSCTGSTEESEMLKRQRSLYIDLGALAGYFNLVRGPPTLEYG

INSRR (human) = INSRR (human) (UniProt P14616)
DAPK3 (human) = DAPK3 (human) (UniProt O43293)
CAMK2B (human) = CAMK2B (human) (UniProt Q13554)
LIMK1 (human) = LIMK1 (human) (UniProt P53667)
CSNK1G1 (human) = CSNK1G1 (human) (UniProt Q9HCP0)
AKT3 (human) = AKT3 (human) (UniProt Q9Y243)
AKT3 (human), sequence (Q9Y243 whole entry, looked up): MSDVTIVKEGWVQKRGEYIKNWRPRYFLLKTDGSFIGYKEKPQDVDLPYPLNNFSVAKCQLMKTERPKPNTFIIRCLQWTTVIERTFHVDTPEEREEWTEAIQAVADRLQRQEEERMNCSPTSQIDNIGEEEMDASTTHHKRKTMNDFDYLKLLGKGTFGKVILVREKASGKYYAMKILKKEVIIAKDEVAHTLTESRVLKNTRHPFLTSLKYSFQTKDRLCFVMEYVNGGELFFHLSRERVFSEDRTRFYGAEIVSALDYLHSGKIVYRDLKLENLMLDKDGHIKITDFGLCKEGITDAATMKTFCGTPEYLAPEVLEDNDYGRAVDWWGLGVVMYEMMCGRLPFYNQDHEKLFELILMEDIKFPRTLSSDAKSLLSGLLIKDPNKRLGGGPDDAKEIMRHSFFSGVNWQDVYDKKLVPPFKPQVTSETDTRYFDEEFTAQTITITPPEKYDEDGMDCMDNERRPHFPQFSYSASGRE

TAOK1 (human) = TAOK1 (human) (UniProt Q7L7X3)
TAOK2 (human) = TAOK2 (human) (UniProt Q9UL54)
STK33 (human) = STK33 (human) (UniProt Q9BYT3)
STK33 (human), sequence (Q9BYT3 whole entry, looked up): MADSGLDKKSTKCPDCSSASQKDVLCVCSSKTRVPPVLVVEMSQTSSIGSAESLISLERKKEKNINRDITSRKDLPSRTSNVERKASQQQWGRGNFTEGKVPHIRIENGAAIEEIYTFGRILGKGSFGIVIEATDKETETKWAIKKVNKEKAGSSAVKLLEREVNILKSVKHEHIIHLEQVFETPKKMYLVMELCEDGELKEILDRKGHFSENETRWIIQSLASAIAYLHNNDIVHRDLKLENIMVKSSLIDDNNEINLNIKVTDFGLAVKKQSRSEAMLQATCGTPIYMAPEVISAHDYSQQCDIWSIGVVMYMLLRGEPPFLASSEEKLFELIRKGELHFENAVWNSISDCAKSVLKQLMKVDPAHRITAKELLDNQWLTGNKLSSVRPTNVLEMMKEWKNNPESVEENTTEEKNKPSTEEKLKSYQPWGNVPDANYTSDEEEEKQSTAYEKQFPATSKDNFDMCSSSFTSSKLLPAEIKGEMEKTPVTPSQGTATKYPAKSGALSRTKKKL

PRKD1 (human) = PRKD1 (human) (UniProt Q15139)
MAP3K3 (human) = MAP3K3 (human) (UniProt Q99759)
RPS6KA4 KD2 (human) = RPS6KA4 KD2 (human) (UniProt O75676)
NTRK2 (human) = NTRK2 (human) (UniProt Q16620)
MAP3K14 (human) = MAP3K14 (human) (UniProt Q99558)
CLK4 (human) = CLK4 (human) (UniProt Q9HAZ1)
LRRK2 (human) = LRRK2 (human) (UniProt Q5S007)
MAP4K5 (human) = MAP4K5 (human) (UniProt Q9Y4K4)
MAP4K5 (human), sequence (Q9Y4K4 whole entry, looked up): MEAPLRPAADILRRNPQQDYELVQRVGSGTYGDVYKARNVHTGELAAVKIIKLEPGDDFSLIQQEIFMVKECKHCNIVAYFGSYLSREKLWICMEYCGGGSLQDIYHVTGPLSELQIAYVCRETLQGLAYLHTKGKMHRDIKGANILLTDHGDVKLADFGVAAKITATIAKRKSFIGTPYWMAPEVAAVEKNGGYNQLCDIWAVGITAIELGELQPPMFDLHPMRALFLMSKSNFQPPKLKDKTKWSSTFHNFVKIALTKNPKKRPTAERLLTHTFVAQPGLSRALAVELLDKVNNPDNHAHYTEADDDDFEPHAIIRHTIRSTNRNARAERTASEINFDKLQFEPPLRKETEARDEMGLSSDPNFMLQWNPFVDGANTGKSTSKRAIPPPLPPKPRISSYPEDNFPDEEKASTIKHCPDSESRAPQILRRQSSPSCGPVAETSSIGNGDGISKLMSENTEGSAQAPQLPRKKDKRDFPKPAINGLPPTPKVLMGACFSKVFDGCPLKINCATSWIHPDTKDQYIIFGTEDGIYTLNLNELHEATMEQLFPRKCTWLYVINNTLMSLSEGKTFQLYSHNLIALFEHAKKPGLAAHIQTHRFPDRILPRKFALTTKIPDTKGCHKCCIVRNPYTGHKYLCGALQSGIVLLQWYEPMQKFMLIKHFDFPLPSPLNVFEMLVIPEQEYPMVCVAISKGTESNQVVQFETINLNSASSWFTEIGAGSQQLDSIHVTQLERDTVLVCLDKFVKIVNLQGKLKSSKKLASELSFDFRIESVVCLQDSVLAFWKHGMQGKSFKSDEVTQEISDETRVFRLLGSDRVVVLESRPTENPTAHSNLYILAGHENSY

IKBKB (human) = IKBKB (human) (UniProt O14920)
IKBKB (human), sequence (O14920 whole entry, looked up): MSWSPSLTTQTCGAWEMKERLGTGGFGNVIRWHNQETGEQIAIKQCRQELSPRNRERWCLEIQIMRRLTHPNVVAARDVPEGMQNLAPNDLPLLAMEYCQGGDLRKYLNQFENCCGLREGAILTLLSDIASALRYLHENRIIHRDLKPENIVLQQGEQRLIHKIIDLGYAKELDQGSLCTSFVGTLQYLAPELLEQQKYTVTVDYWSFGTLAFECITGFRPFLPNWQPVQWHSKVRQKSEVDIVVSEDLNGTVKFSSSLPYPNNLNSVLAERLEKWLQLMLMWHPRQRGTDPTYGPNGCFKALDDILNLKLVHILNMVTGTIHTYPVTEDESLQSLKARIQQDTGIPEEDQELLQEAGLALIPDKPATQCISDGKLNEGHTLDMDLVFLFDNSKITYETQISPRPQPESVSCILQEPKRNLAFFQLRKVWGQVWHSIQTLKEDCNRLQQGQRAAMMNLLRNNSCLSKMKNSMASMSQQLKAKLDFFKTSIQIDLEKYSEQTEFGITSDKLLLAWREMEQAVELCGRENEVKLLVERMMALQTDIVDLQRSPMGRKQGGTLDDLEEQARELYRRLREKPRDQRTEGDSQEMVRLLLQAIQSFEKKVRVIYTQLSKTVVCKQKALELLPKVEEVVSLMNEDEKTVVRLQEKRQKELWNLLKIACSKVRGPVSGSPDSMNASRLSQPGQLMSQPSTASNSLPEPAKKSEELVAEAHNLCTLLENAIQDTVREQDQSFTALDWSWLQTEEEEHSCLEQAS

MLTK (human) = MLTK (human) (UniProt Q9NYL2)
MLTK (human), sequence (Q9NYL2 whole entry, looked up): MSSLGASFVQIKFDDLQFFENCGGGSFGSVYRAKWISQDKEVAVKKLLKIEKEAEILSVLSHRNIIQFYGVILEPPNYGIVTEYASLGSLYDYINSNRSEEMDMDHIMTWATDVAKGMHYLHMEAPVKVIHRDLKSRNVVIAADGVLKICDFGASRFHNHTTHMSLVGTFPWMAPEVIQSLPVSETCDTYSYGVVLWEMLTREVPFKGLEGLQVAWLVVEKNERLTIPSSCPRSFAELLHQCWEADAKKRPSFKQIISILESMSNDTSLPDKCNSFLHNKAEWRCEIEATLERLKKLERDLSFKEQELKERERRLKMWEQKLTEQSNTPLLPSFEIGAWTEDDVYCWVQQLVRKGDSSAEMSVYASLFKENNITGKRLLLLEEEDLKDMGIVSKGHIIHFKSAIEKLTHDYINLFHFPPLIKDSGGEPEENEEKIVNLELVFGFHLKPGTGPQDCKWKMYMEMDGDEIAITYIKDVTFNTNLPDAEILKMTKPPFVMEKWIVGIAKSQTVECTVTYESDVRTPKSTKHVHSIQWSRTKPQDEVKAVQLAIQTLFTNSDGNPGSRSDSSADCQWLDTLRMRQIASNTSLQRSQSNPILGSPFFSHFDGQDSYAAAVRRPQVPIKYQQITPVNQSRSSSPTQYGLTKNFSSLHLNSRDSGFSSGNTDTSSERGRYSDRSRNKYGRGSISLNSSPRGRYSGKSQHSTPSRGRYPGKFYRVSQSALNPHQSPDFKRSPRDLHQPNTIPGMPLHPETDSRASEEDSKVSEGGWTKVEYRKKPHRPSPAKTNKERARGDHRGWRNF

MKNK2 (human) = MKNK2 (human) (UniProt Q9HBH9)
STK25 (human) = STK25 (human) (UniProt O00506)
NUAK1 (human) = NUAK1 (human) (UniProt O60285)
MYLK2 (human) = MYLK2 (human) (UniProt Q9H1R3)

## O=C(CCCc1ccc(-c2ccccc2F)cc1)Nc1ccc(O)cc1
ADRBK2 (human)
  residual activity: 100%
PRKCH (human)
  residual activity: 84%
CAMK2G (human)
  residual activity: 109%
MAPK14 (human)
  residual activity: 89%
PAK3 (human)
  residual activity: 104%
EPHA1 (human)
  residual activity: 117%
TAOK3 (human)
  residual activity: 91.4%
STK16 (human)
  residual activity: 111%
MARK2 (human)
  residual activity: 91.5%
GRK6 (human)
  residual activity: 104%
PRKX (human)
  residual activity: 106%
SRPK3 (human)
  residual activity: 93.7%
NUAK2 (human)
  residual activity: 92.9%
SGK2 (human)
  residual activity: 101%
PRKACA (human)
  residual activity: 99.5%
DDR2 (human)
  residual activity: 98.1%
CDK7 CCNH MNAT1 (human)
  residual activity: 101%
DYRK1A (human)
  residual activity: 106%
MAP3K8 (human)
  residual activity: 101%
INSRR (human)
  residual activity: 92.7%
DAPK3 (human)
  residual activity: 104%
CAMK2B (human)
  residual activity: 99.9%
LIMK1 (human)
  residual activity: 106%
CSNK1G1 (human)
  residual activity: 104%
AKT3 (human)
  residual activity: 111%
TAOK1 (human)
  residual activity: 91.4%
TAOK2 (human)
  residual activity: 98.4%
STK33 (human)
  residual activity: 97%
PRKD1 (human)
  residual activity: 98.4%
MAP3K3 (human)
  residual activity: 108%
RPS6KA4 KD2 (human)
  residual activity: 103%
NTRK2 (human)
  residual activity: 95.8%
MAP3K14 (human)
  residual activity: 99.2%
CLK4 (human)
  residual activity: 103%
LRRK2 (human)
  residual activity: 98%
MAP4K5 (human)
  residual activity: 94.1%
IKBKB (human)
  residual activity: 101%
MLTK (human)
  residual activity: 97.8%
MKNK2 (human)
  residual activity: 106%
STK25 (human)
  residual activity: 105%
NUAK1 (human)
  residual activity: 96.4%
MYLK2 (human)
  residual activity: 97.8%

## O=C1NC(=O)C(c2c[nH]c3ccccc23)=C1c1c[nH]c2ccccc12
ADRBK2 (human)
  residual activity: 87%
PRKCH (human)
  residual activity: 42%
CAMK2G (human)
  residual activity: 104%
MAPK14 (human)
  residual activity: 109%
PAK3 (human)
  residual activity: 97.4%
EPHA1 (human)
  residual activity: 92.1%
TAOK3 (human)
  residual activity: 85.2%
STK16 (human)
  residual activity: 94.2%
MARK2 (human)
  residual activity: 88.9%
GRK6 (human)
  residual activity: 101%
PRKX (human)
  residual activity: 99.5%
SRPK3 (human)
  residual activity: 90%
NUAK2 (human)
  residual activity: 86%
SGK2 (human)
  residual activity: 90.5%
PRKACA (human)
  residual activity: 101%
DDR2 (human)
  residual activity: 101%
CDK7 CCNH MNAT1 (human)
  residual activity: 94.4%
DYRK1A (human)
  residual activity: 80.8%
MAP3K8 (human)
  residual activity: 90.8%
INSRR (human)
  residual activity: 90.1%
DAPK3 (human)
  residual activity: 104%
CAMK2B (human)
  residual activity: 96.9%
LIMK1 (human)
  residual activity: 103%
AKT3 (human)
  residual activity: 90%
TAOK1 (human)
  residual activity: 93.7%
TAOK2 (human)
  residual activity: 102%
STK33 (human)
  residual activity: 97.7%
PRKD1 (human)
  residual activity: 97.6%
MAP3K3 (human)
  residual activity: 127%
RPS6KA4 KD2 (human)
  residual activity: 87.4%
NTRK2 (human)
  residual activity: 90.7%
MAP3K14 (human)
  residual activity: 91%
CLK4 (human)
  residual activity: 76.1%
LRRK2 (human)
  residual activity: 77.5%
MAP4K5 (human)
  residual activity: 87.1%
IKBKB (human)
  residual activity: 106%
MLTK (human)
  residual activity: 107%
MKNK2 (human)
  residual activity: 89.6%
STK25 (human)
  residual activity: 78.3%
NUAK1 (human)
  residual activity: 78.5%
MYLK2 (human)
  residual activity: 91.9%

## Nc1nccc(-c2c(-c3ccc(F)cc3)ncn2C2CCNCC2)n1
ADRBK2 (human)
  residual activity: 97.6%
PRKCH (human)
  residual activity: 91.9%
CAMK2G (human)
  residual activity: 93%
PAK3 (human)
  residual activity: 105%
EPHA1 (human)
  residual activity: 98.2%
TAOK3 (human)
  residual activity: 95.3%
STK16 (human)
  residual activity: 108%
MARK2 (human)
  residual activity: 97%
GRK6 (human)
  residual activity: 98.2%
PRKX (human)
  residual activity: 96.8%
SRPK3 (human)
  residual activity: 99.3%
NUAK2 (human)
  residual activity: 122%
SGK2 (human)
  residual activity: 96.9%
PRKACA (human)
  residual activity: 83%
DDR2 (human)
  residual activity: 107%
CDK7 CCNH MNAT1 (human)
  residual activity: 98.9%
DYRK1A (human)
  residual activity: 96.3%
MAP3K8 (human)
  residual activity: 102%
INSRR (human)
  residual activity: 103%
DAPK3 (human)
  residual activity: 96.5%
CAMK2B (human)
  residual activity: 97.7%
LIMK1 (human)
  residual activity: 89.6%
CSNK1G1 (human)
  residual activity: 83.1%
AKT3 (human)
  residual activity: 92.6%
TAOK1 (human)
  residual activity: 92.7%
TAOK2 (human)
  residual activity: 98%
STK33 (human)
  residual activity: 98.6%
PRKD1 (human)
  residual activity: 54.6%
MAP3K3 (human)
  residual activity: 101%
RPS6KA4 KD2 (human)
  residual activity: 98.7%
NTRK2 (human)
  residual activity: 103%
MAP3K14 (human)
  residual activity: 107%
CLK4 (human)
  residual activity: 96.9%
LRRK2 (human)
  residual activity: 99.9%
MAP4K5 (human)
  residual activity: 68.1%
IKBKB (human)
  residual activity: 104%
MLTK (human)
  residual activity: 98%
MKNK2 (human)
  residual activity: 92.1%
STK25 (human)
  residual activity: 99.8%
NUAK1 (human)
  residual activity: 98.4%
MYLK2 (human)
  residual activity: 103%

## CCn1cnc2c(Nc3cccc(Cl)c3)nc(N[C@@H]3CCCC[C@@H]3N)nc21
ADRBK2 (human)
  residual activity: 89.2%
PRKCH (human)
  residual activity: 77.6%
CAMK2G (human)
  residual activity: 104%
MAPK14 (human)
  residual activity: 100%
PAK3 (human)
  residual activity: 91.9%
EPHA1 (human)
  residual activity: 79.6%
TAOK3 (human)
  residual activity: 104%
STK16 (human)
  residual activity: 101%
MARK2 (human)
  residual activity: 90.1%
GRK6 (human)
  residual activity: 99.6%
PRKX (human)
  residual activity: 102%
SRPK3 (human)
  residual activity: 94.9%
NUAK2 (human)
  residual activity: 93.7%
SGK2 (human)
  residual activity: 98.2%
PRKACA (human)
  residual activity: 102%
DDR2 (human)
  residual activity: 97.2%
CDK7 CCNH MNAT1 (human)
  residual activity: 58.4%
DYRK1A (human)
  residual activity: 100%
MAP3K8 (human)
  residual activity: 93.6%
INSRR (human)
  residual activity: 90.7%
DAPK3 (human)
  residual activity: 105%
CAMK2B (human)
  residual activity: 110%
LIMK1 (human)
  residual activity: 108%
CSNK1G1 (human)
  residual activity: 56.8%
AKT3 (human)
  residual activity: 95.8%
TAOK1 (human)
  residual activity: 90.2%
TAOK2 (human)
  residual activity: 101%
STK33 (human)
  residual activity: 88.9%
PRKD1 (human)
  residual activity: 90.8%
MAP3K3 (human)
  residual activity: 103%
RPS6KA4 KD2 (human)
  residual activity: 88.2%
NTRK2 (human)
  residual activity: 55.3%
MAP3K14 (human)
  residual activity: 85.1%
CLK4 (human)
  residual activity: 49.9%
LRRK2 (human)
  residual activity: 70%
MAP4K5 (human)
  residual activity: 91.1%
MLTK (human)
  residual activity: 104%
MKNK2 (human)
  residual activity: 93.5%
STK25 (human)
  residual activity: 101%
NUAK1 (human)
  residual activity: 52.4%
MYLK2 (human)
  residual activity: 95.2%
